Values of other authors as cited in patent EP2374448A1, “Oral film formulation” (Labtec GmbH, priority 2010, dated 2011).
Where two headings read alike, the source gives them in different places.

[1] = oral administration, overall range

Row | Molecule | Tmax after oral administration [1] | further results
1 | CN(C)CCc1c[nH]c2ccc(CS(=O)(=O)N3CCCC3)cc12 [Almotriptan, I-[[[3-[2-(dimethylamino)ethyl]-1H-indole-5-yl]methyl]sulfonyl]pyrrolidine] | 0.5 - 4 (preferably 1.0 - 3.0) h | 
2 | CN1CCC[C@@H]1Cc1c[nH]c2ccc(CCS(=O)(=O)c3ccccc3)cc12 [Eletriptan, (R)-3-[(I-Methyl-2-pyrrolidinyl)methyl]-5-[2-(phenylsulfonyl)ethyl]-1H-indole] | 1.0 - 3 (preferably 1.5 - 2.0) h | 
3 | CN(C)CCc1c[nH]c2ccc(Cn3cncn3)cc12 [Rizatriptan, N,N-dimethyl-5-(IH-1,2,4-triazol-l-ylmethyl)-1H-indole-3-ethanamine] | 0.5 - 3 (preferably 1.0 - 2.5) h | 
4 | N-methyl-3-(1-methyl-4-piperidinyl)-1H-indole-5-ethanesulfonamide [Naratriptan] |  | Tmax after oral administration (in vivo, po): 1.5 - 4.5 (preferably 2.0 - 4.0) h
5 | 4-(5-Methoxy-4-pyrimidinyl)-1-[3-[5-[[(methylamino)-sulfonyl]methyl]-1H-indole-3-yl]propyl]piperazine [Avitriptan] |  | Tmax after oral administration (in vivo, po): 0.25 - 1 (preferably 0.5) h
6 | CN[C@@H]1CCc2[nH]c3ccc(C(N)=O)cc3c2C1 [Frovatriptan, (+)-(R)-3-methylamino-6-carboxamido-1,2,3,4-tetrahydrocarbazole] | 0.5 - 4 (preferably 1.0 - 3.0) h | 
7 | CN(C)CCc1c[nH]c2ccc(C[C@H]3COC(=O)N3)cc12 [zolmitriptan, (S)-(4)-[[3-[2-(dimethylamino)ethyl]-1H-indole-5yl]methyl]-2-oxazolidinone] | 1 to 4 h | Tmax after oral administration (oral administration, during attack): 2.5 to 3 h; Tmax after oral administration (oral administration, migraine free period): 1 to 2 h
8 | CNS(=O)(=O)Cc1ccc2[nH]cc(CCN(C)C)c2c1 [Sumatriptan, 3-[2-(dimethylamino)ethyl]-N-methyl-1H-indole-5-methanesulfonamide] | 1.5 - 3 (preferably 2 - 2.5) h | 
